The text below walks through data of patent publication US5871779A, “Treatment of arthropathies with vanadate compounds or analogues thereof” (Mount Sinai Hospital Corporation, priority 1996, dated 1999).

For one data set, the system named is collagenase. The data set is described as follows: synovial collagenase expression in arthritic rats (Northern blot). The format is in vivo, rat. The settings on record: BMOV-treated (with NAC) vs control, Day 18. The protocol:
Collagenase, stromelysin, and IL-1 expression were quantitated in each group of rats. Selected rats in each group were sacrificed on Day 18 post arthritis onset to measure collagenase, stromelysin, and IL-1 expression via the Northern Blot. Synovial biopsies were pooled and homogenized in the presence of RNASTAT-60 (Tel Test). Total RNA was isolated following the manufacturer's instructions, washed in 70% ethanol, and dissolved in 30 μl RNA loading buffer (Sigma) containing ethidium bromide. The RNA was electrophoresed on a 1% agarose formaldehyde gel and transferred to 0.45 μm nylon filter membrane (Magna NT, MSL). The blot was prehybridised in 50% formamide, 5×SSPE, 5×dendhardts, 1% SDS, 200 μg/ml ssDNA and 50 μg/ml tRNA. The rat collagenase cDNA (bp. 1-550 of locus RATCOL genbank accession M60616), rat stromelysin (ATCC, Rockville, Md.), or rat […] (genbank accession D00403) were labeled by random primed incorporation of ^32 P-dATP (Random Primed Labeling Kit, Boerhinger Manheim). After overnight hybridization at 42° C. overnight, the blot was washed in 1×SSPE at 37° C. and exposed to Kodak X-Ornat AP film for 24 hours at -70° C. with an intensifying screen. The blot was stripped with 50% formamide in 2×SSPE, checked for residual counts and reprobed. The resulting autoradiographs were digitized and analyzed with NIH image software and normalized for RNA loading.

Data set [1] in a line: body weights of mice, BMOV solution and beads (Example 19). The format is in vivo. The method, then: On day 6 the mice were divided into 6 groups as follows: group 1, empty control; group 3, tumor control; group 3, injected subcutaneously with 0.25 mg/100μl BMOV, twice a day; group 4, injected IP with 20 mg palla beads containing 5 mg of BMOV; group 5, injected IP with 10 mg of BMOV beads on day 6 and day 9 respectively and; group 6, injected intramuscularly with 10 mg of BMOV beads on day 6 and day 9. On day 16, the mice were sacrificed and tumors were dissected.
The body weights of mice in control and treated groups, and the tumor weights from control and treated mice, are shown in Tables 5 and 6 respectively.

The nature of data set [2]: tolerability of BMOV and NAC in arthritic rats. The data set is classed as in vivo. The method, then: Rats with definite arthritis on Day 10 post immunization were randomized into two groups. Control rats (n=8) received only NAC at a dose of 100 mg/kg/day s.c. NAC was prepared as a 3% aqueous solution. The experimental group (n=9) received NAC at 100 mg/kg/day s.c., as well as BMOV subcutaneously at 10 mg/kg/day. BMOV was solubilized in a 5% dextrose solution at 50° C.

The test system of another data set is A431. The data set is described as follows: MTT cytotoxicity assay, A431. The format is cell-based, human. The settings on record: A431, 72 hours. The method, then: (§1) The relative cytotoxicity of various compounds on tumor cell lines was investigated as follows. Cytotoxicity was measured by the MTT microculture tetrazolium colorimetric assay for all cell lines. The relative cytotoxicity of Na3 VO4 and VOSO4 was investigated using the following tumor cell lines: P388(WT) murine leukemia, P388 (ADR) murine leukemia, Lewis murine lung, MCF7 (WT) human breast, […] human lung, K562 human erythroleukemia, A431 human epidermal, LS180 human colon and SK-OV-3 human ovarian. The relative cytotoxicity of doxorubicin, Na3 VO4 and VOSO4 was investigated using the following tumor cell lines: P388(WT) murine leukemia, P388 (ADR) murine leukemia, MCF7(WT) human breast and MCF7 (ADR) human breast. The relative cytotoxicity of BMOV, BEOV and naglivan was investigated using the following tumor cell lines: P388(WT) murine leukemia, P388 (ADR) murine leukemia, Lewis murine lung, H460 human lung, K562 human erythroleukemia, and SK-OV-3 human ovarian.
(§2) The cells were plated (number of cells/well was different from cell line to cell depending on the dividing rate) in a 96-well microculture plate 24 hours prior to the delivery of the vanadium compounds. Serial concentrations of solutions of the test compounds (0.05-100 μM) were delivered to the corresponding wells. […] The absorbance of each well was read with a Titertek Multiskan (310C) spectrophotometer at 570 nm. […]

In the next data set the test system is LS180. The data set is described as follows: MTT cytotoxicity assay, LS180. The data set is classed as cell-based, human. The settings on record: LS180, 72 hours. The method, then:
as §1, §2

In a further data set the test system is MDAY-D2 tumor. The data set is described as follows: MDAY-D2 tumor growth in vivo, orthovanadate s.c. (Example 6A). The arrangement: species or system mice. To be noted: 10 mg/ml, 50 μl daily s.c., day 14. From the text: In order to examine the ability of vanadyl compounds to reduce tumor formation, growth and metastases, a specific animal model which allows investigation of all of these processes in the same animal was chosen. This model involves the injection of a metastatic haematopoietic cell line, MDAY-D2, into mice subcutaneously. These cells form a tumor at the site of injection and its size can be easily determined. In addition, these cells metastasize to the liver and metastases can be detected histologically after day 17 to 19. This model provides a very sensitive and reproducible approach to investigate the effect of vanadyl compounds on tumor growth and metastases.
Using the animal model described above, the effect of subcutaneous administration of orthovanadate on tumor growth was investigated. A total of 15 mice were injected subcutaneously with 1×10^5 MDAY-D2 cells on Day 1. On Day 5, small tumors could be observed at the site of injection. Five mice were injected daily with 50 μl of water alone and 10 mice were injected daily with water containing 10 mg/ml orthovanadate. On day 14, the mice were sacrificed. The tumors were removed from all the animals, photographed, and weighed. FIG. 11 compares sizes of tumors from two untreated and two orthovanadate treated mice. […] In animals treated with water alone, four mice had tumors weighing between 1.18 and 1.68 gms.

Another data set relates to HTB14 cells. The data set is described as follows: viability of HTB14 cells. The data set is classed as cell-based, human. To be noted: 0-50 μM, 48 hours. The method, then:
Fos and jun activity are also required for cellular proliferation in many tumor cell lines. Accordingly, the effect of orthovanadate on adherent cells and cell suspensions were examined. MDAY-D2 (a mouse lymphoid cell line grown in suspension) and HTB14 cells (an adherent human primary astrocytoma cell line) were incubated in media containing 0-50 μM orthovanadate for 48 hours. The cells were harvested and the number of viable cells determined.

“And” between values parts separate entries of the source, which are not always exact repeats. Equal entries are not always repeated.

As for `Cc1occc(=O)c1[O-].Cc1occc(=O)c1[O-].[O]=[V+2]` [BMOV, bis(methylmaltolato) oxovanadium (IV)], the “percent inhibition of collagenase gene expression” value in the data set with collagenase is 78%. Moreover, the “Body weight, Average” value in data set [1] (BMOV solution 0.25 mg × 1) is 17.87. Moreover, the Body weight in data set [1] (BMOV solution 0.25 mg × 1, individual mice) was 18.8 and 17.8 and 18.4 and 17.3. The diarrhea result was “not observed” in data set [2] (BMOV 10 mg/kg/day) and “minor diarrhea” in data set [2] (BMOV 15 mg/kg/day from Day 11).
For the compound `[Na+].[Na+].[Na+].[O]=[V]([O-])([O-])[O-]` [orthovanadate, sodium orthovanadate], the values for the concentration for half-maximal inhibition (IC50) in the data set on A431 and in the data set on LS180 were 7.6 µM and 16.4 µM, respectively. Further, in the data set with MDAY-D2 tumor, the detectable tumors is listed as 2 mice did not have detectable tumors. Further, in the data set on MDAY-D2 tumor (five mice), the tumor size entry is recorded as “less than 0.16 gms”. Further, the “toxicity to HTB14 cells” value in the data set with HTB14 cells is reported as “toxic”.
